Source: patent US11382949B2, “Anthelmintic depsipeptide compounds” (BOEHRINGER INGELHEIM ANIMAL HEALTH USA INC., priority 2016, dated 2022)

System: Microfilaria of Dirofilaria immitis
Assay: Method A: screening of compounds against microfilaria of Dirofilaria immitis (microtitre plate, survival at 72 hours)
Type: cell-based
Details: read-out: mean EC50 values

## C[C@H]1OC(=O)[C@H](CC(C)(C)C)N(C)C(=O)[C@@H](Cc2ccc(SC(F)(F)F)cc2)OC(=O)[C@H](CC(C)(C)F)N(C)C(=O)[C@@H](C)OC(=O)[C@H](CC(C)(C)C)N(C)C(=O)[C@@H](Cc2ccc(SC(F)(F)F)cc2)OC(=O)[C@H](CC(C)(C)F)N(C)C1=O [44-46/1-4, (3S,6R,9S,12R,15S,18R,21S,24R)-3,15-bis(2-fluoro-2-methylpropyl)-4,6,10,16,18,22-hexamethyl-9,21-dineopentyl-12,24-bis(4-(trifluoromethylthio)benzyl)-1,7,13,19-tetraoxa-4,10,16,22-tetraazacyclotetracosan-2,5,8,11,14,17,20,23-octaone]
  EC50: < 1000 nM
